Source: US7772241B2, “Variolin derivatives and their use as antitumor agents” (Pharma Mar S.A., priority 2001, dated 2010)
Like-named read-outs stand apart in the source and are kept apart here.

Key:
K-562 = assay: Inhibition of cells growth by colorimetric (SRB) assay, K-562; details: for GI50 / CC50: Homo sapiens, K562, 48 h; for GI50: read-out: GI50 K-562, SRB assay, 48 hours exposure; for CC50: read-out: LC50 K-562, SRB assay, 48 hours exposure; for TGI K-562: SRB assay, 48 hours exposure
Source text: (§1) The finality of these assays is to interrupt the growth of a “in vitro” tumor cell culture by means a continued exhibition of the cells to the sample to be testing.
(§2) This form of the assay employs 96 well cell culture microplates of 9 mm diameter (Faircloth, 1988; Mosmann, 1983). Most of the cell lines are obtained from American Type Culture Collection (ATCC) derived from different human cancer types.
(§3) Cells are maintained in RPMI 1640 10% FBS, supplemented with 0.1 g/l penicillin and 0.1 g/l streptomycin sulphate and then incubated at 37° C., 5% CO2 and 98% humidity. For the experiments, cells were harvested from subconfluent cultures using trypsin and resuspended in fresh medium before plating.
(§4) Cells are seeded in 96 well microtiter plates, at 5×10^3 cells per well in aliquots of 195 μl medium, and they are allowed to attach to the plate surface by growing in drug free medium for 18 hours. Afterward, samples are added in aliquots of 5 μl in a ranging from 10 to 10^−8 μg/ml, dissolved in DMSO/EtOH/PBS (0.5:0.5:99). After 48 hours exposure, the antitumor effect are measured by the SRB methodology: cells are fixed by adding 50 μl of cold 50% (wt/vol) trichloroacetic acid (TCA) and incubating for 60 minutes at 4° C. Plates are washed with deionized water and dried. One hundred μl of SRB solution (0.4% wt/vol in 1% acetic acid) is added to each microtiter well and incubated for 10 minutes at room temperature. Unbound SRB is removed by washing with 1% acetic acid. Plates are air dried and bound stain is solubilized with Tris buffer. Optical densities are read on a automated spectrophotometric plate reader at a single wavelength of 490 nm.
(§5) The values for mean +/−SD of data from triplicate wells are calculated. Some parameters for cellular responses can be calculated: GI=growth inhibition, TGI=total growth inhibition (cytostatic effect) and LC=cell killing (cytotoxic effect).

A-549 = assay: Inhibition of cells growth by colorimetric (SRB) assay, A-549; details: for GI50 / CC50: Homo sapiens, A549, 48 h; for GI50: read-out: GI50 A-549, SRB assay, 48 hours exposure; for CC50: read-out: LC50 A-549, SRB assay, 48 hours exposure; for TGI A-549: SRB assay, 48 hours exposure
Source text: as §1, §2, §3, §4, §5

SK-MEL-28 = assay: Inhibition of cells growth by colorimetric (SRB) assay, SK-MEL-28
Source text: as §1, §2, §3, §4, §5

HT-29 = assay: Inhibition of cells growth by colorimetric (SRB) assay, HT-29; details: for GI50: read-out: GI50 HT-29, SRB assay, 48 hours exposure; for TGI HT-29: SRB assay, 48 hours exposure
Source text: as §1, §2, §3, §4, §5

LoVo = assay: Inhibition of cells growth by colorimetric (SRB) assay, LoVo; details: for GI50: read-out: GI50 LOVO, SRB assay, 48 hours exposure
Source text: as §1, §2, §3, §4, §5

LoVo-Dox = assay: Inhibition of cells growth by colorimetric (SRB) assay, LoVo-Dox; details: for GI50 / CC50: Homo sapiens, 48 h; for GI50: read-out: GI50 LOVO-DOX, SRB assay, 48 hours exposure; for CC50: read-out: LC50 LOVO-DOX, SRB assay, 48 hours exposure; for TGI LOVO-DOX: SRB assay, 48 hours exposure
Source text: as §1, §2, §3, §4, §5

DU-145 = assay: Inhibition of cells growth by colorimetric (SRB) assay, DU-145; details: for GI50: read-out: GI50 DU-145, SRB assay, 48 hours exposure
Source text: as §1, §2, §3, §4, §5

SK-BR-3 = assay: Inhibition of cells growth by colorimetric (SRB) assay, SK-BR-3; details: for GI50 / CC50: Homo sapiens, SK-BR-3, 48 h; for GI50: read-out: GI50 SK-BR-3, SRB assay, 48 hours exposure; for CC50: read-out: LC50 SK-BR-3, SRB assay, 48 hours exposure; for TGI SK-BR-3: SRB assay, 48 hours exposure
Source text: as §1, §2, §3, §4, §5

IGROV-1 = assay: Inhibition of cells growth by colorimetric (SRB) assay, IGROV-1; details: for GI50: read-out: GI50 IGROV, SRB assay, 48 hours exposure
Source text: as §1, §2, §3, §4, §5

IGROV-ET = assay: Inhibition of cells growth by colorimetric (SRB) assay, IGROV-ET; details: for GI50 / CC50: Homo sapiens, 48 h; for GI50: read-out: GI50 IGROV-ET, SRB assay, 48 hours exposure; for CC50: read-out: LC50 IGROV-ET, SRB assay, 48 hours exposure; for TGI IGROV-ET: SRB assay, 48 hours exposure
Source text: as §1, §2, §3, §4, §5

SK-OV-3 = assay: Inhibition of cells growth by colorimetric (SRB) assay, SK-OV-3; details: for GI50 / CC50: Homo sapiens, SK-OV-3, 48 h; for GI50: read-out: GI50 SKOV-3, SRB assay, 48 hours exposure; for CC50: read-out: LC50 SKOV-3, SRB assay, 48 hours exposure; for TGI SKOV-3: SRB assay, 48 hours exposure
Source text: as §1, §2, §3, §4, §5

PANC-1 = assay: Inhibition of cells growth by colorimetric (SRB) assay, PANC-1; details: for GI50 / CC50: Homo sapiens, PANC-1, 48 h; for GI50: read-out: GI50 PANC-1, SRB assay, 48 hours exposure; for CC50: read-out: LC50 PANC-1, SRB assay, 48 hours exposure; for TGI PANC-1: SRB assay, 48 hours exposure
Source text: as §1, §2, §3, §4, §5

| Structure (SMILES) | GI50 (K-562) [nM] | CC50 (K-562) [nM] | TGI K-562 (K-562) | GI50 (A-549) [nM] | CC50 (A-549) [nM] | TGI A-549 (A-549) | TGI MEL-28 (SK-MEL-28; SRB assay, 48 hours exposure) | GI50 (HT-29; Homo sapiens, HT-29, 48 h) [nM] | TGI HT-29 (HT-29) | GI50 (LoVo; Homo sapiens, LoVo, 48 h) [nM] | TGI LOVO (LoVo; SRB assay, 48 hours exposure) | GI50 (LoVo-Dox) [nM] | CC50 (LoVo-Dox) [nM] | TGI LOVO-DOX (LoVo-Dox) | GI50 (DU-145; Homo sapiens, DU-145, 48 h) [nM] | TGI DU-145 (DU-145; SRB assay, 48 hours exposure) | GI50 (SK-BR-3) [nM] | CC50 (SK-BR-3) [nM] | TGI SK-BR-3 (SK-BR-3) | GI50 (IGROV-1; Homo sapiens, IGROV-1, 48 h) [nM] | also measured |
| --- | --- | --- | --- | --- | --- | --- | --- | --- | --- | --- | --- | --- | --- | --- | --- | --- | --- | --- | --- | --- | --- |
| Nc1nccc2c(-c3ccnc(Oc4ccccc4)n3)c3cccnc3n12 [Compound 78] | 5500 | 28200 | 2.30E−05 | 737 | 8010 | 1.68E−06 | 1.78E−06 | 1340 | 2.82E−05 | 553 | 1.44E−06 | 151 | 18200 | 1.86E−06 | 770 | 1.87E−06 | 528 | 2490 | 1.15E−06 | 621 | GI50 (SK-MEL-28; Homo sapiens, SK-MEL-28, 48 h, read-out: GI50 MEL-28, SRB assay, 48 hours exposure): 717 nM; CC50 (SK-MEL-28; Homo sapiens, SK-MEL-28, 48 h, read-out: LC50 MEL-28, SRB assay, 48 hours exposure): 7050 nM; CC50 (LoVo; Homo sapiens, LoVo, 48 h, read-out: LC50 LOVO, SRB assay, 48 hours exposure): 5050 nM; CC50 (DU-145; Homo sapiens, DU-145, 48 h, read-out: LC50 DU-145, SRB assay, 48 hours exposure): 28200 nM; CC50 (IGROV-1; Homo sapiens, IGROV-1, 48 h, read-out: LC50 IGROV, SRB assay, 48 hours exposure): 4740 nM; TGI IGROV (IGROV-1; SRB assay, 48 hours exposure): 1.41E−06; GI50 (IGROV-ET): 1080 nM; CC50 (IGROV-ET): 14300 nM; TGI IGROV-ET (IGROV-ET): 2.47E−06; GI50 (SK-OV-3): 784 nM; CC50 (SK-OV-3): 28200 nM; TGI SKOV-3 (SK-OV-3): 1.87E−06; GI50 (PANC-1): 1340 nM; CC50 (PANC-1): 28200 nM; TGI PANC-1 (PANC-1): 1.08E−05 |
| Nc1nccc(-c2c3c(N)ccnc3n3c(N)nccc23)n1 [Compound 90] | 1230 | 15800 | 5.28E−06 | 887 | 7050 | 2.05E−06 | 9.68E−07 | 1270 | 1.44E−05 | 276 | 6.54E−07 | 597 | 8070 | 1.27E−06 | 355 | 1.03E−06 | 311 | 1420 | 6.64E−07 | 339 | GI50 (SK-MEL-28; read-out: GI50 MEL-28, SRB assay, 48 hours exposure): 397 nM; CC50 (SK-MEL-28; read-out: LC50 MEL-28, SRB assay, 48 hours exposure): 3450 nM; CC50 (HT-29; Homo sapiens, HT-29, 48 h, read-out: LC50 HT-29, SRB assay, 48 hours exposure): 15800 nM; CC50 (LoVo; read-out: LC50 LOVO, SRB assay, 48 hours exposure): 1560 nM; CC50 (DU-145; read-out: LC50 DU-145, SRB assay, 48 hours exposure): 10700 nM; TGI IGROV (IGROV-1; SRB assay, 48 hours exposure): 6.92E−07; CC50 (IGROV-1; read-out: LC50 IGROV, SRB assay, 48 hours exposure): 1410 nM; GI50 (IGROV-ET): 1920 nM; CC50 (IGROV-ET): 15800 nM; TGI IGROV-ET (IGROV-ET): 6.95E−06; GI50 (SK-OV-3): 465 nM; CC50 (SK-OV-3): 13900 nM; TGI SKOV-3 (SK-OV-3): 1.15E−06; GI50 (PANC-1): 1180 nM; CC50 (PANC-1): 15800 nM; TGI PANC-1 (PANC-1): 4.98E−06 |
